Each structure is given as a SMILES string.

Here are results for 2 molecules from paper PMC10590756, “Glutarate regulates T cell metabolism and anti-tumour immunity” (Nature Metabolism, 2023).

On the set-up of series [1]: method as in PMID 29989593. Conditions: approved by the European Union for use as a food additive; cited from earlier work.
Series [2] addresses T1, PDHc (Homo sapiens, UniProt P10515).
T1 construct: we performed a direct enzymatic activity assay of the PDHc on CD8^+ T cell lysates; endogenous in cells; host or cells: human CD8+ T cells, lysate (activity kit MAK183, Sigma-Aldrich)
As to the kind of experiment: PDHc activity assay on CD8^+ T cell lysates. Format: cell-based. Conditions: 500 µM DEG. Here is the method:
PDHc activity was determined using a PDHc Activity Assay Kit (catalogue no. MAK183, Sigma-Aldrich). A total of 1 × 10^6 cells were used per reaction and the assay was performed according to the manufacturer’s instructions. Activity was normalized to total protein concentration. Data were acquired on a FLUOstar Omega (BMG Labtech).

Series [3] concerns primary murine CD8^+ T cells. As to the kind of experiment: Screen of T cell differentiation: CD62L/CD44 populations by flow cytometry. The series is classed as cell-based, mouse. From the text:
We first sought to investigate if compounds structurally related to 2HG could increase the TCM population of CD8^+ T cells. To carry out this analysis, we identified 19 structural analogues of 2HG; eight were commercially available and 11 were synthesized de novo for the purposes of this study (Table 1). We used esterified versions of most of the compounds used, so as to increase both potency and intracellular translocation. The octyl ester form of S-2HG was used as a positive control in these assays. We screened the compounds for effects on T cell differentiation at 400-µM levels (using the efficacy of S-2HG in CD8^+ T cells as a guide[11]) in culture media during the process of activation of isolated primary murine CD8^+ T cells.
After 7 days of culture, we assessed the abundance of CD62L^hiCD44^hi (TCM-like) T cells by flow cytometry (Fig. 1a). We additionally determined the effect of each compound on cell growth and viability (Fig. 1b and Extended Data Fig. 1a).
Mouse CD8^+ T cells were isolated from mouse spleens using positive selection. Incubation with microbeads conjugated to monoclonal anti-mouse CD8α (Ly-2; isotype: rat IgG2a) antibody (catalogue no. 130-049-401, Miltenyi Biotec) was followed by magnetic bead isolation on a MACS column. WT mouse CD8^+ T cells were activated with anti-mouse CD3/CD28 Dynabeads (catalogue no. 11453D, Thermo Fisher Scientific) at a 1:1 cell:bead ratio. Purified OT1 CD8^+ T cells were activated with 1 µg ml^−1 of the OVA-derived peptide SIINFEKL (ProImmune). All mouse CD8^+ T cells were cultured in complete RPMI 1640 supplemented with 10% FCS, 100 U ml^−1 penicillin, 100 µg ml^−1 streptomycin, 55 µM 2-ME (catalogue no. 21985023, Gibco) and 10 U ml^−1 IL-2.
Single-cell suspensions were stained with LIVE/DEAD Fixable Near-IR Dead Cell Stain Kit (catalogue no. 10119, Thermo Fisher Scientific) followed by surface and intracellular staining with fluorochrome-labelled antibodies (Supplementary Tables 1 and 2). […]

Series [4] deals with T2, human full-length HIF-P4H-1 (Homo sapiens, UniProt Q96KS0).
T2 construct: The human full-length HIF-P4H-1 and KDM6A enzymes were recombinantly produced using Sf21 insect cells; made in house; host or cells: Sf21 insect cells (baculovirus)
As to the kind of experiment: Cell-free HIF-P4H-1 activity assay (^14CO2 release). The series is classed as biochemical. From the text:
The human full-length HIF-P4H-1 and KDM6A enzymes were recombinantly produced using Sf21 insect cells and the enzymes were purified with anti-FLAG M2 affinity gel as described previously[68],[69]. Briefly, the C terminus FLAG-tagged human HIF-P4H1-2 and KDM6A were generated using PCR and subcloned into pAcG3X and pVL1393 baculovirus expression vectors, respectively. The recombinant baculoviruses were generated by transducing the bacmid DNA into Spodoptera frugiperda Sf9 cells using BaculoGold DNA (HIF-P4H1-2, BD Biosciences) and BacMagic-3 DNA kit (for KDM6A, Novagen). Recombinant proteins were produced by infecting Sf21 insect cells with the corresponding amplified baculoviruses for 72 h at 27 °C. Cells were homogenized in a buffer containing 10 mM Tris, 150 mM NaCl, 100 mM glycine, 0.1% (v/v) Triton X-100, pH 7.8, and a protease inhibitor cocktail tablet without EDTA. The cell lysates were centrifuged at 21,000g for 30 min; the soluble fractions containing the FLAG-tagged proteins were affinity-purified using the anti-FLAG M2 affinity gel (Sigma-Aldrich). […] Protein concentration was measured with NanoDrop and proteins were analysed by SDS–PAGE followed by Coomassie brilliant blue staining. […] The IC50 value of the glutarate analogue was calculated from the inhibition saturation curves.

Consider `CCOC(=O)CCCC(=O)OCC` [DEG, Diethyl glutarate], for which the toxicity entry in series [1] was “non-toxic”. Further, the “PDHc activity, acute exposure” value in series [2] (30 min) is recorded as “decreased PDHc activity”. The “PDHc activity, chronic exposure” value in series [2] (seven day) is given as “decreased PDHc activity”. Besides, the “abundance of CD62L^hiCD44^hi (TCM-like) CD8^+ T cells” value in series [3] (400 µM test compound, 7 days of culture) was “significantly increased”. Moreover, the “effector memory T (TEM) cell population (CD62L^loCD44^hi)” value in series [3] (7 days of culture with DEG) is listed as “decreased”. Further, the “CD62L^hiCD44^hi TCM population” value in series [3] (increasing concentrations of DEG, 7 days) is recorded as “increased the CD62L^hiCD44^hi TCM population in a dose-dependent manner”.

With `O=C(O)CCCC(=O)O` [glutarate, glutaric acid], the IC50 in series [4] was 2000 µM.
